From ChEMBL document CHEMBL1240438, “Identification of potent virtual leads to design novel indoleamine 2,3-dioxygenase inhibitors: pharmacophore modeling and molecular docking studies” (Eur J Med Chem, 2010)
pIC50: −log10 of the molar value.

biological target: Indoleamine 2,3-dioxygenase 1 (Homo sapiens, UniProt P14902); test: Inhibition of 2,3 dioxygenase
Sequence (P14902 whole entry): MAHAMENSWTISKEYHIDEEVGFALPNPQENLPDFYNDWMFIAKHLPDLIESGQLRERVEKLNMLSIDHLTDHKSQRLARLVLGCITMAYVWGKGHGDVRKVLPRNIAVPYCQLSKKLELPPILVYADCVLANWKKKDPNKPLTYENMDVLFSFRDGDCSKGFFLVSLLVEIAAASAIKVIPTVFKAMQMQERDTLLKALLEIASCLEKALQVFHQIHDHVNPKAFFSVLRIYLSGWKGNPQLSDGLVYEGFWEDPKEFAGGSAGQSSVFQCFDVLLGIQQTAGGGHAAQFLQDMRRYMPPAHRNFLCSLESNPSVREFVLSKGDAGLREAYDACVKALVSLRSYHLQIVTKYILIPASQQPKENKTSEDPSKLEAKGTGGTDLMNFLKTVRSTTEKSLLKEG

SMILES	pIC50
CC1(C)OC2=C(C(=O)c3ccccc3C2=O)C2OC21 (centres undefined)	5.31
CC1=C(SCC(NC(=O)CCC(N)C(=O)O)C(=O)NCC(=O)O)C(=O)c2c(O)cccc2C1=O (centres undefined)	6.06
CCCCNC1C2=C(OC(C)(C)C1O)C(=O)c1ccccc1C2=O (centres undefined)	6.89
CC1(C)C=CC2=C(O1)C(=O)c1cc(O)ccc1C2=O	5.70
